Patent US20090041820A1, “Functional polymer compositions” (priority 2007, published 2009)

Legend:
[1] = PAO/ester/triclosan migration from PP strips (weight loss, toluene wash, surface observation); assay type: physicochemical; conditions: fast cooled PP strips
Description: Preparation of sample 24892-114-0 to 7: The polypropylene described above (85% by weight) was melt blended in a mixer with 15 wt % triclosan stock solution as prepared in Table 2. The mixed polymer was then compression molded into 4″×4″ squares with less than 1 mm thickness. Two methods were used to prepare the PP strip with very different results. One method includes fast cooling after the compression molding (quench sample with a 7° C. cooling surface). The sample strip had PAO fluid on surface indicating fast PAO migration after a few hours at room temperature. The other method included slow cooling after the compression molding (cool sample in ambient air, 23° C.). Sample strip appeared very dry with no apparent PAO fluid on surface. When this sample was put into 70° C. oven, slight oiliness was observed on the surface.
Table 4 below depicts the PAO/ester/Triclosan migration from the PP strips as measured by weight loss in 7 days.
For fast cooled PP strips, there was up to 1.8 wt % weight loss by toluene wash due to PAO/ester/Triclosan migration to the surface.

[2] = Solubility of triclosan in PAO carrier fluid; assay type: physicochemical; conditions: PAO without ester

SMILES: Oc1cc(Cl)ccc1Oc1ccc(Cl)cc1Cl [Triclosan]
- migration to the surface, confirmed by GC analysis of the toluene wash [1]: migrated to the surface
- solubility in PAO alone [2]: low solubility
